Experimental data: patent US20250235543A1, “MODIFIED PROTEINS AND PROTEIN DEGRADERS” (Cullgen (Shanghai), Inc., priority 2021, published 2025)

Key:
[1] = tested on: cyclin D1, cyclin D2, cyclin D3; assay: Immunoblot of cyclin D protein levels in Calu-1 (and BT-549) cells; format: cell-based; conditions: 16 hours; for decrease of degradation potency versus corresponding active compound: Calu-1 cells, CPD-042 vs CPD-002, CPD-049 vs CPD-031
Procedure: Specific exemplary heterobifunctional compounds were characterized in Calu-1, BT-549 and other cells. Cells that express cyclin D1-3 and CDK4/6 proteins were treated with heterobifunctional compounds disclosed herein at indicated concentrations for 16 hours. Cells were collected, lysed and subject to immunoblotting using an antibody specific to cyclin D1, cyclin D2, cyclin D3, CDK4, CDK6 or phosphorylated R^b proteins. Tubulin or GAPDH was used as the loading control. DMSO treatment was used as the negative control.
In a time-course study, Calu-1 cells were treated with 500 nM CPD-002, or 100 nM CPD-031 for indicated period of time prior to immunoblotting (FIG. 4A-4B).
The heterobifunctional compound-mediated degradation was dependent on the ubiquitin-proteasome system and cullin E3 ligase. […] In addition, DDB1 E3 ligase was critical for the degrader-induced cyclin D downregulation. Depletion of DDB1 using CRISPR-Cas9 technology attenuated the cyclin D degradation induced by CPD-031 (FIG. 5C).
(§1) To verify that heterobifunctional compound-mediated degradation is dependent on the binding to CDK4-cyclin D complex, we designed three negative control compounds, CPD-042, CPD-049 and CPD-380, which are derived from CPD-002 CPD-031 and CPD-343, respectively. These three control compounds bear the same DDB1 ligand and linker as their corresponding active heterobifunctional compounds but with modified warheads to impair the binding of the control compounds to CDK4. […] However, the binding to CDK4 is not sufficient for cyclin D degradation. Two cereblon (CRBN)-recruiting reference heterobifunctional compounds, CP-10 (Su, J Med Chem, 2019; CAS No.: 2366268-80-4) and BSJ-03-123 (Brand, Cell Chem Biol, 2019; CAS No.: 2361493-16-3) were analyzed in Calu-1 cells.

Calu-1 cells = assay: Anti-viability / anti-proliferation in Calu-1 cells; format: cell-based; conditions: CPD-042 vs CPD-002, CPD-049 vs CPD-031
Procedure: FIG. 6 show immunoblots of cyclin D1, cyclin D2, cyclin D3, and CDK4 proteins expressed by Calu-1 cells after treatment with a dose range of control compounds CPD-042 (A), or CPD-049 (B) for 16 hours, and anti-viability curves of Calu-1 cells in the presence of CPD-002 and CPD-042 (C), or CPD-031 and CPD-049 (D).
FIG. 11A-11B show immunoblots of cyclin D1, CDK4, and CDK6 proteins expressed by Calu-1 cells after treatment with a dose range of heterobifunctional reference compound CP-10, or BSJ-03-123 for 8 hours (FIG. 11A), and anti-viability curves of Calu-1 cells in the presence of CP-10, or BSJ-03-123 for 3 days (FIG. 11B).
as §1

DDB1 [2] = biological target: T1, DDB1 (Homo sapiens, UniProt Q16531, D705G/DEL396-460/DEL463-701/I704S/T703N); assay: SPR binding assay to immobilized DDB1ΔBPB; conditions: binding affinities to DDB1
T1 construct: His6 (N, cleaved yes); TEV protease cleavage site (N, cleaved yes); made in house; host or cells: SF9 insect cells, Bac-to-Bac baculovirus, pFastBacHTB vector
T1 sequence (Q16531 other isoform, or with tags, fused parts or gaps DEL396-460/DEL463-701/T703N/I704S/D705G): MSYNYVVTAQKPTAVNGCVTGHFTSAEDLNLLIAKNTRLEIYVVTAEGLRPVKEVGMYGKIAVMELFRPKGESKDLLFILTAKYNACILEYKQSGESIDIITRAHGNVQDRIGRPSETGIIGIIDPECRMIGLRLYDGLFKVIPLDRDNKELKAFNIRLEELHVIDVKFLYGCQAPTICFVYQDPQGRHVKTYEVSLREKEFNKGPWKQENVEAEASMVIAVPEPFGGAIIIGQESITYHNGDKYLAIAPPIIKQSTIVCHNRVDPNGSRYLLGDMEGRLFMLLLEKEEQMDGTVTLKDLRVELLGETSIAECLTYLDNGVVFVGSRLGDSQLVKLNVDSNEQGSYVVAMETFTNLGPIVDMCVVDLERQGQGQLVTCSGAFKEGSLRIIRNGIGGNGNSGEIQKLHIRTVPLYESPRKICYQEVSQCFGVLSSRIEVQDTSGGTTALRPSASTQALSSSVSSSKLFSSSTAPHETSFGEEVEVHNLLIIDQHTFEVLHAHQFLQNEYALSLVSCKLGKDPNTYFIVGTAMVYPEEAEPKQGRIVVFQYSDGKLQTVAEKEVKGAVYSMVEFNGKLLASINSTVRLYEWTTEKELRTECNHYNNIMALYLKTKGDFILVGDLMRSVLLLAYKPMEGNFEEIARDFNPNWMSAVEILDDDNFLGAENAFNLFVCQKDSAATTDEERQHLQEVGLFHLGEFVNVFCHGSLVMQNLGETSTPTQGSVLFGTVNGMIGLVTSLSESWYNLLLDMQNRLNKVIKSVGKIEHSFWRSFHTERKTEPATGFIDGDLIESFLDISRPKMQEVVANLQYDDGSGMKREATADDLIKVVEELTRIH
Procedure: The binding affinities of heterobifunctional compounds to DDB1 were determined by SPR assay (FIG. 1A-1B). Purified DDB1ΔBPB proteins were immobilized on a CM5 sensor chip, and a dose range of compound solutions were injected in multi-cycle kinetic format. Data were fit to a steady state model to provide equivalent dissociation constants (Kd).
Human DDB1ΔBPB (UniProt: Q16531. BPB domain, aa 396 to 705, is replaced with a GNGNSG linker) coding sequences were cloned into pFastBacHTB vector and were expressed in SF9 cells using Bac-to-Bac baculovirus expression system (Thermo Fisher Scientific). The expression constructs include an N-terminal His6-tag to facilitate the purification, and a TEV protease cleavage site in between. DDB1ΔBPB proteins were obtained from supernatant of cell lysates and purified through sequential application of Ni affinity column (Ni-NTA column, Bio-Rad) and size-exclusion column (Superdex 200 16/600GL column, GE Healthcare) chromatography. Protein tags were cleaved off by TEV protease, and the resulting untagged proteins were further purified by Ni affinity column. Purified proteins were verified by immunoblotting, analytic SEC, and LC-MS.
SPR studies were performed on a Biacore X100 plus instrument (GE Healthcare). Immobilization of purified DDB1ΔBPB was carried out at 25° C. using a CM5 sensor chip. The surface was pre-equilibrated in HBS-EP running buffer (10 mM HEPES, pH7.4, 150 mM NaCl, 3 mM EDTA, 0.05% P20), before it was activated with EDC/NHS. DDB1ΔBPB proteins were immobilized by amine coupling to a density of 10,000-12,000 resonance units (RUs) on flow cell FC2, whereas flow cell FC1 was used as reference. Both protein immobilized and reference surfaces were deactivated with 1M ethanolamine. All interaction experiments were performed at 25° C. Test compounds were prepared and serially diluted in HBS-EP running buffer containing final 5% DMSO (6-point two-fold serial dilution, 100 μM-3.125 μM final concentration of compounds). Compound solutions were injected individually in multi-cycle kinetic format without regeneration (flow rate 30 μl/min, association time 120 s, dissociation time 120 s). Sensorgrams from reference surfaces and blank injections were subtracted from the raw data (double-referencing) and the data was solvent-corrected prior to analysis. All data were fit to steady state affinity model using Biacore Evaluation Software to provide equivalent dissociation constants (Kd).

cyclin D1 = assay: Cyclin D1 percentage degradation in Calu-1 cells (immunoblotting); format: cell-based; conditions: 200 nM, 16 hours
Summary of the method: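 Cells were rinsed once in cold PBS and lysed in cold RIPA buffer containing protease and phosphatase inhibitors, with gentle agitation at 4° C. for 30 min. Lysates were spun at 13,000 rpm for 10 min at 4° C., protein was measured by BCA, and samples were boiled in Laemmli buffer at 99° C. for 5 min before SDS-PAGE immunoblotting.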

CDK4 = biological target: T2, CDK4 (Homo sapiens, UniProt P11802); assay: CDK4 percentage degradation in Calu-1 cells (immunoblotting); format: cell-based; conditions: Calu-1 cells, 200 nM, 16 hours; read-out: CDK4 Degradation (200 nM)
T2 construct: endogenous in cells; host or cells: Calu-1
T2 sequence (P11802 2-303 limits assumed): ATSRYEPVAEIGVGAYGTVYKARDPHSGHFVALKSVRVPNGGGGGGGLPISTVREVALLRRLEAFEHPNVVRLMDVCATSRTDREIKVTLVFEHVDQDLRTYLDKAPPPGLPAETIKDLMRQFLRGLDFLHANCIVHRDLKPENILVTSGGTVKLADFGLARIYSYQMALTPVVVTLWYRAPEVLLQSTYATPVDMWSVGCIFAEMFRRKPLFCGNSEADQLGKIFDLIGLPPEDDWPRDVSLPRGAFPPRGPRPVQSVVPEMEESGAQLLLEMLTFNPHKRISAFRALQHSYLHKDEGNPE
T2 sequence (P24385 whole entry partner): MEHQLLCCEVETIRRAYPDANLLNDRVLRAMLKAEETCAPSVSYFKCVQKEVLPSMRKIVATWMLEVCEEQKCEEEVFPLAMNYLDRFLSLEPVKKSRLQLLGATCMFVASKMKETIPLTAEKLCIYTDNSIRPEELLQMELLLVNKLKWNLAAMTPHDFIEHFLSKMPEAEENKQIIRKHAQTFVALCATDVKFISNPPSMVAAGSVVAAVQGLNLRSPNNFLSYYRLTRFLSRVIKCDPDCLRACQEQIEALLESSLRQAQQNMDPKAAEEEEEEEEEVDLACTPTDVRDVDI
T2 sequence (Q16531 2-1140 limits assumed, further chain): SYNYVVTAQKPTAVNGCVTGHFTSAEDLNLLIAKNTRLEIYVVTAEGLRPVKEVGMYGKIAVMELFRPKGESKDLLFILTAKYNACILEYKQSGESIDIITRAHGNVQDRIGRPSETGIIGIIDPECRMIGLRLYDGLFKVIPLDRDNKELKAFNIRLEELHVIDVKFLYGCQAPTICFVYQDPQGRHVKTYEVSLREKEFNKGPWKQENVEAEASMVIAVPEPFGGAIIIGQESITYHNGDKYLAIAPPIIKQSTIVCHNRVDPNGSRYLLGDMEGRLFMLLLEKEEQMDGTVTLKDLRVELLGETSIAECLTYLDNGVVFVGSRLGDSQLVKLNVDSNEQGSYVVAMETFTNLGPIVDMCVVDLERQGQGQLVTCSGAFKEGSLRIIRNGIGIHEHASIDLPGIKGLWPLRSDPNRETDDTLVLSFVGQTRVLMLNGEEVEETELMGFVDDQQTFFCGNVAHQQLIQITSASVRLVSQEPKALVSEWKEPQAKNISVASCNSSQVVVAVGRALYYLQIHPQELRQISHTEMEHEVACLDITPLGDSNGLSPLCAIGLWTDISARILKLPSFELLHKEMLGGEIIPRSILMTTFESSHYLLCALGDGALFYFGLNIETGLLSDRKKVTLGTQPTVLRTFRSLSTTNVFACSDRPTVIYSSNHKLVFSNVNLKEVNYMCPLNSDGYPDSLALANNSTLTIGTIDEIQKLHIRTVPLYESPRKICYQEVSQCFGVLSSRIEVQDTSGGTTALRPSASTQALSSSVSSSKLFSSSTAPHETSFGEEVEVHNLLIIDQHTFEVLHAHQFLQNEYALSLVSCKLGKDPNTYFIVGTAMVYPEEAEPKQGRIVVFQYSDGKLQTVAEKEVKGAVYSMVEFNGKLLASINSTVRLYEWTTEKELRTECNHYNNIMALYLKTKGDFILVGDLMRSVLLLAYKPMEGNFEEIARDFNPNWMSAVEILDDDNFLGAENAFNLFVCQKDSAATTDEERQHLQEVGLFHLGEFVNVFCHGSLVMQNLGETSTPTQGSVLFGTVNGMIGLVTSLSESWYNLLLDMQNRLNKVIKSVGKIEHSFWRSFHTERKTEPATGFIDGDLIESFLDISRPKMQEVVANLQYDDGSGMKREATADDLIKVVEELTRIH
Summary of the method: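 Cultured cells were rinsed once in cold PBS and lysed in cold RIPA buffer containing protease and phosphatase inhibitors, with gentle agitation at 4° C. for 30 min. Lysates were centrifuged at 13,000 rpm for 10 min at 4° C., and protein was quantified by BCA. Samples were then separated by SDS-PAGE, detected with ECL, and the CDK4 bands quantified in Image Lab.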

Calu-1 = assay: Cell viability assay, Calu-1; format: cell-based; conditions: Calu-1 cells, 96-well plates, serial dilution, 3 days
Procedure: Cells were treated with CDK4/6 inhibitors palbociclib, ribociclib, or abemaciclib, or heterobifunctional compounds CPD-002 or CPD-031 following a 9-point serial dilution for 3 days.
Cells were seeded at a density of 2,000-5,000 cells per well in 96-well assay plates and treated with test compounds following a 10-point serial dilution for 3-6 days. Cell viability was determined using the CellTiter-Lumi assay kit according to the manufacturer's instructions. The dose-response curves were determined and IC50 values were calculated using the GraphPad Prism software following a nonlinear regression (least squares fit) method. Data presented was mean±standard deviation (SD) unless otherwise indicated.

[3] = tested on: cyclin D1, cyclin D2, cyclin D3, CDK4 and CDK6; assay: Immunoblotting of cyclin D and CDK4/6 protein levels in Calu-1 cells; format: cell-based; conditions: for degradation potencies compared with corresponding active heterobifunctional compounds: dose range, negative control compounds
Procedure: (§2) Calu-1 (FIG. 2A) or BT-549 (FIG. 2B) cells were treated with CPD-002, CPD-004, or palbociclib at indicated concentrations for 16 hours.
Calu-1 cells were treated with CPD-031 at indicated concentrations for 16 hours.
Calu-1 cells were treated with CPD-002 or CPD-031 at 500 nM or 100 nM, respectively for indicated period of time.
Calu-1 cells were pre-treated with DMSO, 20 μM MG-132 (MG), 5 μM MLN4924 (MLN) or 1 μM TAK-243 (TAK) for 2 hours, and subsequently incubated with 500 nM CPD-002, 500 nM CPD-004, or 100 nM CPD-031 for another 4 h or 2 h prior to immunoblotting (FIG. 5A-5B).
Calu-1 cells were treated with a dose range of negative control compounds CPD-042 or CPD-049 for 16 hours (FIG. 6A-6B).
Calu-1 cells were treated with reference compounds CP-10 or BSJ-03-123 at indicated concentrations for 8 hours.
(§3) Cultured cells were washed with cold PBS once and lysed in cold RIPA buffer supplemented with protease inhibitors and phosphatase inhibitors (Beyotime Biotechnology). The solutions were then incubated at 4° C. for 30 min with gentle agitation to fully lysed cells. Cell lysates were centrifuged at 13,000 rpm for 10 min at 4° C. and pellets were discarded. Total protein concentrations in the lysates were determined following BCA assays (Beyotime Biotechnology). Cell lysates were mixed with Laemmli loading buffer and heated at 99° C. for 5 min. Proteins were resolved on SDS-PAGE and visualized using Western ECL Substrate kits on a ChemiDoc MP Imaging system (Bio-Rad). Protein bands were quantitated using the Image Lab software provided by Bio-Rad.

DDB1 [4] = biological target: T1, DDB1; assay: Surface plasmon resonance (SPR) binding of heterobifunctional compounds to DDB1; conditions: purified DDB1ΔBPB immobilized on CM5 chip, multi-cycle kinetic format, steady state model, read-out: binding affinities (Kd) to DDB1
Procedure: To determine whether the addition of linkers and target binders to the DDB1 ligands affected the binding to DDB1 E3 ligase, the binding affinities of heterobifunctional compounds to DDB1 was evaluated using a surface plasmon resonance (SPR) assay. Purified DDB1ΔBPB proteins were immobilized on a CM5 sensor chip and a dose range of compound solutions were injected in multi-cycle kinetic format. Data was fit to steady state model and gave equivalent dissociation constants (Kd).

[5] = tested on: cyclin D1, cyclin D2, cyclin D3, CDK4 and CDK6; assay: Immunoblotting of cyclin D and CDK4/6 protein levels in BT-549 cells; format: cell-based; conditions: indicated concentrations, 16 hours
Procedure: as §2, §3

[6] = tested on: Rb phosphorylation, cleaved caspase-3; assay: Immunoblotting of downstream Rb phosphorylation and cleaved caspase-3 in Calu-1 or BT-549 cells; format: cell-based; conditions: 16 hours
Procedure: as §2, §3

Row | Kd (DDB1 [2]) [µM] | inhibition at 0.2 µM (CDK4) [%] | Kd (DDB1 [4]) [µM] | Compound | decrease of degradation potency versus corresponding active compound [1] [fold] | decrease of cellular anti-proliferation activity versus corresponding active compound (Calu-1 cells) [fold] | CyclinD1 Degradation (200 nM) (cyclin D1) | cell viability (cellular anti-proliferation activity) (Calu-1) | degradation potencies compared with corresponding active heterobifunctional compounds ([3]; 16 hours) | reduction of cyclin D1, cyclin D2, and cyclin D3 protein levels ([1]; immunoblot, Calu-1 / BT-549 cells, dose range) | cyclin D degradation after pretreatment with MG-132, MLN4924 or TAK-243 ([3]; 2 hours pre-treatment, then 500 nM CPD-002, 500 nM CPD-004 or 100 nM CPD-031 for 4 h or 2 h) | cyclin D1, cyclin D2, cyclin D3, CDK4 and CDK6 protein levels ([3]; indicated concentrations, 16 hours) | cyclin D1, cyclin D2, cyclin D3, CDK4 and CDK6 protein levels [5] | downstream Rb phosphorylation and cleaved caspase-3 [6]
1 | 20 to 50 | < 30 |  | CC(=O)c1c(C)c2cnc(N(C)c3ccc(N4CCN(CC(=O)NCCOCCOCCOCCOCCOCCNc5ccc(C(=O)Nc6nc(C)c(C)s6)c(C)c5)CC4)cn3)nc2n(C2CCCC2)c1=O [CPD-049, 4-((1-(4-(6-((6-Acetyl-8-cyclopentyl-5-methyl-7-oxo-7,8-dihydropyrido[2,3-d]pyrimidin-2-yl)(methyl)amino)pyridin-3-yl)piperazin-1-yl)-2-oxo-6,9,12,15,18-pentaoxa-3-azaicosan-20-yl)amino)-N-(4,5-dimethylthiazol-2-yl)-2-methylbenzamide] | > 100 | > 100 | D (protein percentage degradation <30%) | much weaker cellular anti-proliferation activities | much weaker degradation potencies |  |  |  |  | 
2 | < 20 | < 30 |  | CC(=O)c1c(C)c2cnc(N(C)c3ccc(N4CCN(CC(=O)NCCOCCOCCOCCOCCOCCNc5ccc(C(=O)Nc6ncc(C)s6)c(C)c5)CC4)cn3)nc2n(C2CCCC2)c1=O [CPD-042, 4-((1-(4-(6-((6-Acetyl-8-cyclopentyl-5-methyl-7-oxo-7,8-dihydropyrido[2,3-d]pyrimidin-2-yl)(methyl)amino)pyridin-3-yl)piperazin-1-yl)-2-oxo-6,9,12,15,18-pentaoxa-3-azaicosan-20-yl)amino)-2-methyl-N-(5-methylthiazol-2-yl)benzamide] | > 10 | > 20 | D (protein percentage degradation <30%) | much weaker cellular anti-proliferation activities | much weaker degradation potencies |  |  |  |  | 
3 | < 20 | 30 to 50 | 9.4 | CC(=O)c1c(C)c2cnc(Nc3ccc(N4CCN(CC(=O)NCCOCCOCCOCCOCCOCCNc5ccc(C(=O)Nc6nccs6)c(C)c5)CC4)cn3)nc2n(C2CCCC2)c1=O [CPD-004, 4-((1-(4-(6-((6-Acetyl-8-cyclopentyl-5-methyl-7-oxo-7,8-dihydropyrido[2,3-d]pyrimidin-2-yl)amino)pyridin-3-yl)piperazin-1-yl)-2-oxo-6,9,12,15,18-pentaoxa-3-azaicosan-20-yl)amino)-2-methyl-N-(thiazol-2-yl)benzamide] |  |  | A (protein percentage degradation >=80%) |  |  | particularly effective | diminished the cyclin D degradation effect | reduced cyclin D1, cyclin D2, cyclin D3, CDK4 and CDK6 protein levels in a concentration-dependent manner | reduced cyclin D1, cyclin D2, cyclin D3, CDK4 and CDK6 protein levels in a concentration-dependent manner | inhibited downstream Rb phosphorylation and induced cleaved caspase-3 in a concentration-dependent manner
